Laboratory results taken from patent US20190031618A1, “BENZIMIDAZOLE DERIVATIVES USEFUL AS CB-1 INVERSE AGONISTS” (Janssen Pharmaceutica NV, priority 2015, published 2019).

Columns and labels:
[1] = biological target: Human CB1R (Cannabinoid receptor 1) (Homo sapiens, UniProt P21554); test: CB-1 in vitro cAMP (HTRF) assay; assay type: cell-based; conditions: for EC50: HEK cells, cAMP HTRF, 250 nM forskolin, mean where tested more than once, read-out: CB1 HEK_cAMP EC50
Text: (§1) CB1 and CB2 receptors are Gi-coupled GPCR. Activation of CB1 and CB2 receptors results in a decrease in cAMP production. An inverse agonist of the CB1 or CB2 receptor results in the opposite effect, an increase of cAMP production. The principle of this assay is based on HTRF® technology (Homogeneous Time-Resolved Fluorescence). The method is a competitive immunoassay between native cAMP produced by cells and the cAMP labeled with the fluorophore d2. The tracer binding is quantified by a Mab anti-cAMP labeled with Eu3+TBP-NHS Cryptate (supplied as part of the assay kit). The specific signal (i.e. energy transfer) is inversely proportional to the concentration of cAMP in the standard or sample.
Human CB1R (Cannabinoid receptor 1) was stably transfected in HEK-293 cells (DiscoveRx, cat: 93-0200C1). Human CB2R (Cannabinoid receptor 2) was stably transfected in HEK-293 cells (DiscoveRx, cat: 93-0201C1).
One day prior to experiments media was warmed to 37° C. and the cryo-stored cells were thawed in a 37° C. water bath. The cells were then added to media (10× volume) and the mixture was centrifuged at 1000 RPM for 5 min. The supernate was removed and the cells were re-suspended in media. A sample of the cell suspension was evaluated on a Cedex XS automated cell counter (Innovatis Systems) to determine viable cells/ml. Additional media was added to the cells to achieve a final cell density of 4E5 cells/mL. […] Cells were removed from Row P (location of cAMP standards). […] The cell plates were lidded and stored for 15 minutes in a hood, then transferred to an incubator (37° C., 5% CO2, 95% humidity) overnight.
Test compounds (60 μL, 10 mM) were added to Column 1 and 13 (A1 through N1 and A13 through L13). Test compounds were serially diluted 1/3 by transferring and mixing 20 μl sample with 40 μL DMSO.
DMSO (40 μL) was added to wells of 384 well V bottom polystyrene plate: O2 through O11, M14 through M23, N14 through N23, and O14 through O23. […] The control was serially diluted 1/3 by transferring and mixing 20 μl sample with 40 μL DMSO. This process resulted 11 doses per control, 10 mM to 0.5 μM.
Cells plated the day prior to the assay in clear bottom plates were viewed on an inverse microscope to ensure confluency in the range of 60-75%.
A FLEXDROP (Perkin Elmer) was cleaned with ethanol then water, and primed with Buffer 2. A 384 well V bottom polypropylene plate containing d2 labelled cAMP and a second 384 well V bottom polypropylene plate containing anti-cAMP was prepared (50 μl per well). Media as “dumped” from the cell plate and 30 μL Buffer 1 was added to each well using a Multidrop. The content of the cell plate was again “dumped” and 10 μL Buffer 2 was added to each well using a Flexdrop. […] The cell plate was mixed (Speed 6, Lab-Line Instruments Titer Plate Shaker) and centrifuged (1000 RPMs, 1 min). […] The cell plate was again mixed (speed 6) and centrifuged (1000 RPMs, 1 min). The cell plate was incubated for 30 minutes at room temperature (˜27° C.). The contents of row P were removed and the cAMP standard dilutions were added in duplicate to Row P (P1-12 and P13-24). After incubation, 6 μL d2 labelled cAMP and 6 μL of Anti-cAMP were added to all wells of the cell plate using a BioMek FX (Beckman Coulter). The cell plate was again mixed (speed 6) and centrifuged (1000 RPMs, 1 min) and was incubated for 60 minutes in the dark at room Temp (˜27° C.).
After this final incubation, the cell plate was read in HTRF mode (fluorescence at 665 nm and 620 nm) on an Envision plate Reader (Perkin Elmer). The Envision reader outputs a ratio of channel 1/channel 2 fluorescence×10,000 (Normalized signal (NS)). Amount of cAMP in nM was calculated for each well (based on NS) from a cAMP standard curve located on each plate (at P1-12 and P13-24). EC50 values were determined from a 4-point fit (Hill equation) of a single 11-point compound dosing. Hill slope was fixed at 1.0.

[2] = biological target: Human CB2R (Cannabinoid receptor 2) (Homo sapiens, UniProt P34972); test: CB-2 in vitro cAMP (HTRF) assay; assay type: cell-based; conditions: for EC50: HEK cells, cAMP HTRF, 250 nM forskolin, mean where tested more than once, read-out: CB2 HEK_cAMP EC50
Text: as §1
Human CB1R (Cannabinoid receptor 1) was stably transfected in HEK-293 cells (DiscoveRx, cat: 93-0200C1). Human CB2R (Cannabinoid receptor 2) was stably transfected in HEK-293 cells (DiscoveRx, cat: 93-0201C1). Cell cultures were maintained in media: DMEM (Invitrogen Cat#12430-054) supplemented with 10% HI FBS (Invitrogen Cat#16140-071), 1% L-glutamine (Invitrogen Cat#25030-081), 0.2 mg/ml Hygromycin B (Invitrogen Cat#10687-010), 600 μg/mL G418 (Invitrogen Cat#10131-035), and 1× Penn/Strep (Invitrogen 15140-122). After cell expansion, aliquots were cryo-stored in media containing 5% DMSO (Pierce Cat#20684).
One day prior to experiments media was warmed to 37° C. and the cryo-stored cells were thawed in a 37° C. water bath. The cells were then added to media (10× volume) and the mixture was centrifuged at 1000 RPM for 5 min. The supernate was removed and the cells were re-suspended in media. A sample of the cell suspension was evaluated on a Cedex XS automated cell counter (Innovatis Systems) to determine viable cells/ml. Additional media was added to the cells to achieve a final cell density of 4E5 cells/mL. The cells were then plated into 384 well PDL white solid bottom plates (Greiner, Cat#781945) at 20 μL per well using a Multidrop (Thermo Scientific). Cells were removed from Row P (location of cAMP standards). Two columns of cells were plated into a clear bottom 384 well PDL coated plate (Greiner, Cat#781944) to view confluence the day of the assay. The cell plates were lidded and stored for 15 minutes in a hood, then transferred to an incubator (37° C., 5% CO2, 95% humidity) overnight.
DMSO was added to all wells of 384 well V bottom polystyrene plate (Greiner, Cat#781280) except to columns 1 and 13, rows O and P and wells M13-M23 and N13-N23. Test compounds (60 μL, 10 mM) were added to Column 1 and 13 (A1 through N1 and A13 through L13). Test compounds were serially diluted 1/3 by transferring and mixing 20 μl sample with 40 μL DMSO.
DMSO (40 μL) was added to wells of 384 well V bottom polystyrene plate: O2 through O11, M14 through M23, N14 through N23, and O14 through O23. AM630 (also known as [6-iodo-2-methyl-1-[2-(4-morpholinyl)ethyl]-1H-indol-3-yl](4-methoxyphenyl)-methanone, Cayman Chemical, Cat#10006974) (60 μL, 10 mM) was added to O1; and 1-(2,4-dichlorophenyl)-7-[(4-fluorophenyl)methylene]-4,5,6,7-tetrahydro-N-1-piperidinyl-1H-benzimidazole-3-carboxamide (60 μL, 10 mM) was added to N13. The control was serially diluted 1/3 by transferring and mixing 20 μl sample with 40 μL DMSO. This process resulted 11 doses per control, 10 mM to […].
Cells plated the day prior to the assay in clear bottom plates were viewed on an inverse microscope to ensure confluency in the range of 60-75%. […]

Human CB2R (Cannabinoid receptor 2), sequence (P34972 whole entry): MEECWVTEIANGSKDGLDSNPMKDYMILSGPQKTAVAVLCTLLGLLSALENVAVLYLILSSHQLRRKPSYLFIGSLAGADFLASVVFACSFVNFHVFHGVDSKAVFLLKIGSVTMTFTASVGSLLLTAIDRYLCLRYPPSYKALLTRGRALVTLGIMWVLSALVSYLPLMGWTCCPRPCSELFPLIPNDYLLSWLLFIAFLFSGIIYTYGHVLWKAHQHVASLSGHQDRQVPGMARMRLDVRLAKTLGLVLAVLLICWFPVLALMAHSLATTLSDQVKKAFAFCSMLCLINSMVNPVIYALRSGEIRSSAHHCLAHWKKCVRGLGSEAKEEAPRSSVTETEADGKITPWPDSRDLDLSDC
Human CB1R (Cannabinoid receptor 1), sequence (P21554 whole entry): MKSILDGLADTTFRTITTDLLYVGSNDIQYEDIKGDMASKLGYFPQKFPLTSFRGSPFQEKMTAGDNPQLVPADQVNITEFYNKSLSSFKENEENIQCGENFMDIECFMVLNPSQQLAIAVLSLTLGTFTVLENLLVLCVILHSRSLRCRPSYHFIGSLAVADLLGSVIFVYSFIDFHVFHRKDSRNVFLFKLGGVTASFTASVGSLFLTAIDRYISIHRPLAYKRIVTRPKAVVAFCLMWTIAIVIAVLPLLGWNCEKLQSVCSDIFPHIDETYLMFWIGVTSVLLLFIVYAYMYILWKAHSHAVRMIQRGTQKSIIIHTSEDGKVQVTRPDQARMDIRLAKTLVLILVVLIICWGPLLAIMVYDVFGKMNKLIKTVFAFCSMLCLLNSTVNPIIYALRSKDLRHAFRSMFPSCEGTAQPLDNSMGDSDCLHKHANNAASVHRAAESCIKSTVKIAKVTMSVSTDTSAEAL

| SMILES | EC50 [1] [nM] | EC50 [2] [µM] | IC50 ([1]; first line of the list, HEK-293 cells, cAMP, 250 nM Forskolin) [nM] | IC50 ([2]; second line, the sentence announces activity against CB-1 and CB-2, read-out: CB-1 receptor: IC50 (second line of the list)) [µM] |
| --- | --- | --- | --- | --- |
| FC(F)(F)c1nc2ccc(C(c3ccc(Cl)cc3)c3nccs3)cc2n1CCc1cccc(Cl)c1 (stereo not shown) [Example 424] | 2320 | > 10 |  |  |
| O=C(O)c1ccc(S(=O)(=O)N2CCC(Cn3c(C4CC4)nc4ccc(C(c5ccc(Cl)cc5)c5ccc(Cl)cc5)cc43)CC2)cc1 [Example 15] | 73 | 0.7 |  |  |
| COC(=O)c1cccc(N2CCC(Cn3c(C4CC4)nc4ccc(C(c5ccc(Cl)cc5)c5ccc(Cl)cc5)cc43)CC2)c1 [Example 13] | > 10000 | > 10 |  |  |
| O=C(O)c1ccc(-c2cccc(S(=O)(=O)NCCCn3c(C4CC4)nc4ccc(C(c5ccc(Cl)cc5)c5ccc(Cl)cc5)cc43)c2)cc1 [Example 8] | 33.9 | 0.0782 |  |  |
| O=S(=O)(c1ccc(C(F)(F)F)cc1)N1CCC(n2c(C3CC3)nc3ccc(C(c4ccc(Cl)cc4)c4ccc(Cl)cc4)cc32)CC1 [Example 280] | 10.5 | > 10 |  |  |
| NC(=O)COc1ccc(N2CCC(n3c(C4CC4)nc4ccc(C(c5ccc(Cl)cc5)c5ccc(Cl)cc5)cc43)CC2)cc1 [Example 142] | 21.5 | 5.25 |  |  |
| NCCS(=O)(=O)N1CCC(n2c(C3CC3)nc3ccc(C(c4ccc(Cl)cc4)c4ccc(Cl)cc4)cc32)CC1 [Example 46] | 450 | > 42 |  |  |
| FC(F)(F)Cc1nc2ccc(C(c3ccc(Cl)cc3)c3nccs3)cc2n1CCc1cccc(Cl)c1 (stereo not shown) [Example 340] | 1440 | > 10 |  |  |
| O=C(O)c1ccnc(N2CCC(Cn3c(C4CC4)nc4ccc(C(c5ccc(Cl)cc5)c5ccc(Cl)cc5)cc43)CC2)n1 [Example 2] | 479 | 5.03 |  |  |
| Clc1ccc(C(c2ccc(Cl)cc2)c2ccc3nc(C4CC4)n(CCOc4cccc(Br)c4)c3c2)cc1 [Example 7] | 26.7 | 7.6 |  |  |
| Clc1ccc(CCn2c(C3CC3)nc3ccc(C(c4ccc(Cl)cc4)c4nccs4)cc32)cc1 (stereo not shown) [Example 338] | 59.7 | 4 |  |  |
| O=S(=O)(c1cccc(NCCOCCOCc2ccccc2)c1)N1CCC(n2c(C3CC3)nc3ccc(C(c4ccc(Cl)cc4)c4ccc(Cl)cc4)cc32)CC1 [compound of formula (II), N-(2-(2-(benzyloxy)ethoxy)ethyl)-3-((4-(6-(bis(4-chlorophenyl)methyl)-2-cyclopropyl-1H-benzo[d]imidazol-1-yl)piperidin-1-yl)sulfonyl)aniline] |  |  | 13.5 | > 10 |
| NC(=O)c1cccc(CN2CCC(n3c(C4CC4)nc4ccc(C(c5ccc(Cl)cc5)c5ccc(Cl)cc5)cc43)CC2)c1 [Example 141] | 3.3 | > 10 |  |  |
| CCOC(=O)N1CCC(n2c(C)nc3ccc(C(c4ccc(Cl)cc4)c4nccs4)cc32)CC1 (stereo not shown) [Example 445] | 947 | > 10 |  |  |
| Cc1nc2ccc(C(c3ccc(Cl)cc3)c3nccs3)cc2n1-c1cccc(Cl)c1 (stereo not shown) [Example 436] | 473 | > 10 |  |  |
| COC(=O)c1cnc(N2CCC(Cn3c(C4CC4)nc4ccc(C(c5ccc(Cl)cc5)c5ccc(Cl)cc5)cc43)CC2)nc1 [Example 5] | 33 | 0.632 |  |  |
| COc1ccc(Cn2c(C3CC3)nc3ccc(C(c4ccc(Cl)cc4)c4ccc(Cl)cc4)cc32)cc1 [Example 177] | 96.7 | 7.9 |  |  |
| O=S(=O)(N1CCC(n2c(C3CC3)nc3ccc(C(c4ccc(Cl)cc4)c4nccs4)cc32)CC1)C(F)(F)F (stereo not shown) [Example 384] | 12 | > 10 |  |  |

Second part, the compound after the results:

| EC50 [1] [nM] | EC50 [2] [µM] | IC50 ([1]; first line of the list, HEK-293 cells, cAMP, 250 nM Forskolin) [nM] | IC50 ([2]; second line, the sentence announces activity against CB-1 and CB-2, read-out: CB-1 receptor: IC50 (second line of the list)) [µM] | SMILES |
| --- | --- | --- | --- | --- |
| 41.5 | > 10 |  |  | COc1ccc(S(=O)(=O)N2CCC(n3c(C4CC4)nc4ccc(C(c5ccc(Cl)cc5)c5ccc(Cl)cc5)cc43)CC2)cc1F [Example 225] |
| 18.5 | 5.25 |  |  | CCNC(=O)N1CCC(n2c(C3CC3)nc3ccc(C(c4ccc(Cl)cc4)c4ccc(Cl)cc4)cc32)CC1 [Example 73] |
| 133 | > 10 |  |  | NS(=O)(=O)N1CCC(n2c(C3CC3)nc3ccc(C(c4ccc(Cl)cc4)c4ccc(Cl)cc4)cc32)CC1 [Example 274] |
| 459 | 7.9 |  |  | O=C(O)c1ccccc1S(=O)(=O)N1CCC(n2c(C3CC3)nc3ccc(C(c4ccc(Cl)cc4)c4ccc(Cl)cc4)cc32)CC1 [Example 241] |
| > 10000 | > 10 |  |  | CCOC(=O)N1CCC(n2c(C(F)(F)F)nc3ccc(C(c4ccc(Cl)cc4)c4nccs4)cc32)CC1 (stereo not shown) [Example 415] |
| 6550 | > 10 |  |  | COC(=O)c1cccc(-n2c(C3CC3)nc3ccc(C(c4ccc(Cl)cc4)c4ccc(Cl)cc4)cc32)c1 [Example 174] |
| 1430 | > 10 |  |  | O=C(O)c1ccc(C(=O)N2CCC(n3c(C4CC4)nc4ccc(C(c5ccc(Cl)cc5)c5ccc(Cl)cc5)cc43)CC2)cc1 [Example 246] |
| 5.8 | 0.73 |  |  | COc1cc(S(=O)(=O)N2CCC(n3c(C4CC4)nc4ccc(C(c5ccc(Cl)cc5)c5ccc(Cl)cc5)cc43)CC2)ccc1C(=O)O [Example 251] |
